Experimental data published in ChEMBL document CHEMBL4507266, “Data for DCP probe BAY-784” (2021).

Columns and labels:
[1] = target: Casein kinase I isoform delta (Homo sapiens) (UniProt P48730); conditions: Compound concentration 1000.0 nM
[2] = tested on: Receptor-type tyrosine-protein kinase FLT3 (Homo sapiens), P36888 [D835H]; conditions: Compound concentration 1000.0 nM
[3] = tested on: Phosphatidylinositol 4,5-bisphosphate 3-kinase catalytic subunit alpha isoform (Homo sapiens), P42336 [H1047Y]; conditions: Compound concentration 1000.0 nM
[4] = target: STE20-like serine/threonine-protein kinase (Homo sapiens) (UniProt Q9H2G2); conditions: Compound concentration 1000.0 nM
STE20-like serine/threonine-protein kinase (Homo sapiens), sequence (Q9H2G2 whole entry, looked up): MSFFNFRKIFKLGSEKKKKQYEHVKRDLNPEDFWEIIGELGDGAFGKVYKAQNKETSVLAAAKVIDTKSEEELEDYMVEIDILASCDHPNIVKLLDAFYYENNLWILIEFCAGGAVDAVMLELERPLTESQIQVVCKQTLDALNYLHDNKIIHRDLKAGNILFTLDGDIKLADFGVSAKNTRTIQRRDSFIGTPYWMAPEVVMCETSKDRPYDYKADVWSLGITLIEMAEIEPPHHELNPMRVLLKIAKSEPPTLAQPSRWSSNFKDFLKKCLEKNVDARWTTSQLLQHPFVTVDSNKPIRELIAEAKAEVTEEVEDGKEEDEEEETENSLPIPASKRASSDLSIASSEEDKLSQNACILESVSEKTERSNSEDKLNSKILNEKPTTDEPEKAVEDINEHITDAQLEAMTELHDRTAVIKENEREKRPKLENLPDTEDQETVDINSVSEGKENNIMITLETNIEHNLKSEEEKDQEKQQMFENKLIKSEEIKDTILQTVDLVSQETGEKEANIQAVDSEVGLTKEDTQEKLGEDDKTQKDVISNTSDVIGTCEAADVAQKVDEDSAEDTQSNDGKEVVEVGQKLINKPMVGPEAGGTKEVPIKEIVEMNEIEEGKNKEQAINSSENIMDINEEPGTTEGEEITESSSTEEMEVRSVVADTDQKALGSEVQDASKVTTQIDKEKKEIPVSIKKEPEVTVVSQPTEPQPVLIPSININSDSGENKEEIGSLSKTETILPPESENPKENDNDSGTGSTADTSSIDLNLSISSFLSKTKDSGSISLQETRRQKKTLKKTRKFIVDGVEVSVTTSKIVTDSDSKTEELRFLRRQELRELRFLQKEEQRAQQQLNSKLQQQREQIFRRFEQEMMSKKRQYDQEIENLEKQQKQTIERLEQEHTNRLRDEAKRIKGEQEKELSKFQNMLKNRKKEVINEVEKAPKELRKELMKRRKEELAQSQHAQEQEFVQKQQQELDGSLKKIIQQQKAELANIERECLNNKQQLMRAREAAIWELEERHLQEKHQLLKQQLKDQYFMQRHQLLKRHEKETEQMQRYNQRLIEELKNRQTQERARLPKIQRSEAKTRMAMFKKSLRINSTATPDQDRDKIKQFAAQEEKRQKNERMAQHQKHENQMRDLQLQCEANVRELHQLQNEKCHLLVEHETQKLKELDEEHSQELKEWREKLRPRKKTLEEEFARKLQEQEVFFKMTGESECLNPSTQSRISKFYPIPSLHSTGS

[5] = target: Ribosomal protein S6 kinase alpha-3 (Homo sapiens) (UniProt P51812); conditions: Compound concentration 1000.0 nM
[6] = target: Serine/threonine-protein kinase 33 (Homo sapiens) (UniProt Q9BYT3); conditions: Compound concentration 1000.0 nM
[7] = target: Tyrosine-protein kinase Yes (Homo sapiens) (UniProt P07947); conditions: Compound concentration 1000.0 nM
[8] = target: Rhodopsin kinase GRK1 (Homo sapiens) (UniProt Q15835); conditions: Compound concentration 1000.0 nM
Rhodopsin kinase GRK1 (Homo sapiens), sequence (Q15835 whole entry): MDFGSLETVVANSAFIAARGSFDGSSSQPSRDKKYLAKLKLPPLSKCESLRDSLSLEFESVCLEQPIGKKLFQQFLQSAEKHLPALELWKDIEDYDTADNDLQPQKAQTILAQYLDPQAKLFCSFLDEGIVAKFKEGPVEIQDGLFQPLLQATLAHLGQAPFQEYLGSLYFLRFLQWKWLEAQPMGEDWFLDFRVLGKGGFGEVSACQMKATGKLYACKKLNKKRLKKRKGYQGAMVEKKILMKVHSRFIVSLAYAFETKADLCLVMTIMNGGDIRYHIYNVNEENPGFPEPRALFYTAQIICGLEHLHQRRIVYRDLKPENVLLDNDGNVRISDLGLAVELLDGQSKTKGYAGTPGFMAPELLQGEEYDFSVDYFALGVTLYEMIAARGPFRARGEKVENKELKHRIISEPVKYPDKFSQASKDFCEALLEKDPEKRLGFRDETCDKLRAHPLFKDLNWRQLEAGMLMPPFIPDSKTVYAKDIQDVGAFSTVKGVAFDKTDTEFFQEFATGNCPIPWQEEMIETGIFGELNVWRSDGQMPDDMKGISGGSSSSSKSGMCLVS

[9] = tested on: Epidermal growth factor receptor (Homo sapiens), P00533 [L858R,T790M]; conditions: Compound concentration 1000.0 nM
[10] = target: Tyrosine-protein kinase ABL2 (Homo sapiens) (UniProt P42684); conditions: Compound concentration 1000.0 nM
[11] = target: Casein kinase I isoform epsilon (Homo sapiens) (UniProt P49674); conditions: Compound concentration 1000.0 nM
[12] = target: Ribosomal protein S6 kinase beta-1 (Homo sapiens) (UniProt P23443); conditions: Compound concentration 1000.0 nM
[13] = target: Ribosomal protein S6 kinase alpha-4 (Homo sapiens) (UniProt O75676); conditions: Compound concentration 1000.0 nM
[14] = target: Inhibitor of nuclear factor kappa-B kinase subunit alpha (Homo sapiens) (UniProt O15111); conditions: Compound concentration 1000.0 nM
[15] = target: T1, Alpha-2C adrenergic receptor (Homo sapiens) (UniProt P18825); conditions: Compound concentration 10.0 uM
T1 sequence (whole entry): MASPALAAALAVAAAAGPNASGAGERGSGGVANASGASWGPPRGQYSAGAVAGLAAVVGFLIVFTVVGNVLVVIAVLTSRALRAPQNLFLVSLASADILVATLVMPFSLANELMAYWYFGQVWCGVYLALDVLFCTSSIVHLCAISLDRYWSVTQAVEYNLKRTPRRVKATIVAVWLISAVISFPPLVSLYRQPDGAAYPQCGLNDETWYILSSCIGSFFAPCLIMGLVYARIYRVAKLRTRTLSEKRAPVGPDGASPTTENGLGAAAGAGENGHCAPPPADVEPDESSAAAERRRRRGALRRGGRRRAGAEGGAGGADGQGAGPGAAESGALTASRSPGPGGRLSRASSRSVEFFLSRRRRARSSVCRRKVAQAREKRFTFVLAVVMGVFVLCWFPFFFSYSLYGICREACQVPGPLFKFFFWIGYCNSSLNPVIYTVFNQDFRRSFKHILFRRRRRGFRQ

[16] = target: Serine/threonine-protein kinase pim-1 (Homo sapiens) (UniProt P11309); conditions: Compound concentration 1000.0 nM
[17] = target: Ephrin type-A receptor 2 (Homo sapiens) (UniProt P29317); conditions: Compound concentration 1000.0 nM
Ephrin type-A receptor 2 (Homo sapiens), sequence (P29317 whole entry): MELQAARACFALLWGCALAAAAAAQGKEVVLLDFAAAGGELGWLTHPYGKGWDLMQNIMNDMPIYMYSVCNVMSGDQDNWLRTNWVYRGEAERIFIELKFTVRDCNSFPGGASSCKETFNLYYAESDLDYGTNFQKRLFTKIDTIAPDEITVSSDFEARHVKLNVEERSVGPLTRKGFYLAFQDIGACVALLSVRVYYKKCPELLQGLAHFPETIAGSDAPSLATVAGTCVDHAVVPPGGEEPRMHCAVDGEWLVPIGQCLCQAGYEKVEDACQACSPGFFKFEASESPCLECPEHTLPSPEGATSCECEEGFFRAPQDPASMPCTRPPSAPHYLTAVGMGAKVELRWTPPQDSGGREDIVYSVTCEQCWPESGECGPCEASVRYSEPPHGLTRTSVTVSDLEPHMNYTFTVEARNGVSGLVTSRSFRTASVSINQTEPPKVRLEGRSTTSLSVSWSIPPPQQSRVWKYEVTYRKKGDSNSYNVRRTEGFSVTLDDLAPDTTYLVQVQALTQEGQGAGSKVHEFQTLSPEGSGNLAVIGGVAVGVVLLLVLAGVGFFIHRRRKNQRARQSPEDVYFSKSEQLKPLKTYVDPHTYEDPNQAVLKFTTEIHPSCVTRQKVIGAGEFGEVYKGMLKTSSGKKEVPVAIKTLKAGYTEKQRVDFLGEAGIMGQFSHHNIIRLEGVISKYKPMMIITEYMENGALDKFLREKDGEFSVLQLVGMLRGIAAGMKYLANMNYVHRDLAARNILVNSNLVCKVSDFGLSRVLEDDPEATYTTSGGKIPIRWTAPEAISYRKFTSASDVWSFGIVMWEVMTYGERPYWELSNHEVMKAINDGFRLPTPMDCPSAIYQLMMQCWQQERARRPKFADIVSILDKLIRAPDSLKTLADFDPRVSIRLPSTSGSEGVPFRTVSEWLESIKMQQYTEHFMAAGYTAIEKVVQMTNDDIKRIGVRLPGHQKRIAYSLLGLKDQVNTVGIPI

[18] = target: Serine/threonine-protein kinase N2 (Homo sapiens) (UniProt Q16513); conditions: Compound concentration 1000.0 nM
[19] = tested on: Mast/stem cell growth factor receptor Kit (Homo sapiens), P10721 [V559D]; conditions: Compound concentration 1000.0 nM
Mast/stem cell growth factor receptor Kit (Homo sapiens), P10721 [V559D], sequence (P10721 whole entry V559D): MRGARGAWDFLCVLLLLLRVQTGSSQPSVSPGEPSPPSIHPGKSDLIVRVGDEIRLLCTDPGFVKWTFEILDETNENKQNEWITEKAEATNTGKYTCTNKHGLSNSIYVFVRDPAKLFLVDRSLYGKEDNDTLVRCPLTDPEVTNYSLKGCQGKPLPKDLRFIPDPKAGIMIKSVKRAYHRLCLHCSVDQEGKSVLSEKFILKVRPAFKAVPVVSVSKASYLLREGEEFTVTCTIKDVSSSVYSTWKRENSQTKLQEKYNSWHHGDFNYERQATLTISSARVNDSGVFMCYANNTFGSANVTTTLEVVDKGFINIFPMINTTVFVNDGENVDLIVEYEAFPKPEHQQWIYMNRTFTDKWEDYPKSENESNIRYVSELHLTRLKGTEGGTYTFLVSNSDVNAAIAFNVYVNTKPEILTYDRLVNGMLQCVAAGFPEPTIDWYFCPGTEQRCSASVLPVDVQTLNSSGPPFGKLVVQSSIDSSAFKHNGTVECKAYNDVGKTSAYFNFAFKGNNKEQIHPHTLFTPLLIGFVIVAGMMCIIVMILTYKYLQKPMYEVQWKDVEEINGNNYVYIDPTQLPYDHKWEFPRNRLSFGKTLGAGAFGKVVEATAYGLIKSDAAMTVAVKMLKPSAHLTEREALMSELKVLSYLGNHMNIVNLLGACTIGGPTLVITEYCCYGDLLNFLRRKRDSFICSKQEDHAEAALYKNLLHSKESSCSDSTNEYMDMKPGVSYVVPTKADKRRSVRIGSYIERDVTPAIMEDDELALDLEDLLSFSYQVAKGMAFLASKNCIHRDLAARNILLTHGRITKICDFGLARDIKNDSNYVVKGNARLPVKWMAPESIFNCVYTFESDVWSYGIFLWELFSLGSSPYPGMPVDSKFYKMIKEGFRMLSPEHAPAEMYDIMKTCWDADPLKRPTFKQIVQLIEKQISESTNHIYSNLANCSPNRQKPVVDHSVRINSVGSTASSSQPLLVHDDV

[20] = target: Cyclin-dependent kinase 3 (Homo sapiens) (UniProt Q00526); conditions: Compound concentration 1000.0 nM
Cyclin-dependent kinase 3 (Homo sapiens), sequence (Q00526 whole entry, looked up): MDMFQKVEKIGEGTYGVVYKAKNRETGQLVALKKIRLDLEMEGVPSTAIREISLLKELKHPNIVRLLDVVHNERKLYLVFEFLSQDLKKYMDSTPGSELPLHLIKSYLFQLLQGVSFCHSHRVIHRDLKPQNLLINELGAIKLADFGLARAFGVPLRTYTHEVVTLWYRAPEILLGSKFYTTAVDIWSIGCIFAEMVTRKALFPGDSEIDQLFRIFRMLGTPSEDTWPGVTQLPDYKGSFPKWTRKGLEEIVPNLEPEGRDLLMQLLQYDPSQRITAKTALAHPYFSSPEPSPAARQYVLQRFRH

[21] = target: Cyclin-dependent kinase 13 (Homo sapiens) (UniProt Q14004); conditions: Compound concentration 1000.0 nM
[22] = target: Serine/threonine-protein kinase ICK (Homo sapiens) (UniProt Q9UPZ9); conditions: Compound concentration 1000.0 nM
[23] = tested on: Epidermal growth factor receptor (Homo sapiens), P00533 [UNDEFINED MUTATION]; conditions: Compound concentration 1000.0 nM
[24] = target: Serine/threonine-protein kinase PLK1 (Homo sapiens) (UniProt P53350); conditions: Compound concentration 1000.0 nM
Serine/threonine-protein kinase PLK1 (Homo sapiens), sequence (P53350 whole entry): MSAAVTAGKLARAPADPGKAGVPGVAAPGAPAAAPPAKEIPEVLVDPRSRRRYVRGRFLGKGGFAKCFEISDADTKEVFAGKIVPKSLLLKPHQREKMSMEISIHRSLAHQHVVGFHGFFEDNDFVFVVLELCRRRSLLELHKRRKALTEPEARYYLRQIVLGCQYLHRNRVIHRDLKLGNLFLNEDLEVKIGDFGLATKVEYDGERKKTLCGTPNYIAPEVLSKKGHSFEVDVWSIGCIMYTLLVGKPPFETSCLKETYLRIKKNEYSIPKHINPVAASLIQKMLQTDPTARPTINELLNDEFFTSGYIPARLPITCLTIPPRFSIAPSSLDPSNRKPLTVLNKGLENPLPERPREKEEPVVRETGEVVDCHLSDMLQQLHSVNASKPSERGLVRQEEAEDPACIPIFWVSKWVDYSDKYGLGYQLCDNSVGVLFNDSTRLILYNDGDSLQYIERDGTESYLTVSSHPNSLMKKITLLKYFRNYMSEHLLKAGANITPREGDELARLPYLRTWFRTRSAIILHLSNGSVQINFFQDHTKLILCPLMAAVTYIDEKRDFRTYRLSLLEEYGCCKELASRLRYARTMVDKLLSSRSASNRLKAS

[25] = tested on: Epidermal growth factor receptor (Homo sapiens), P00533 [G719S]; conditions: Compound concentration 1000.0 nM
[26] = target: Mast/stem cell growth factor receptor Kit (Homo sapiens) (UniProt P10721); conditions: Compound concentration 1000.0 nM
[27] = target: Serine/threonine-protein kinase Nek9 (Homo sapiens) (UniProt Q8TD19); conditions: Compound concentration 1000.0 nM
[28] = target: Serine/threonine-protein kinase NIM1 (Homo sapiens) (UniProt Q8IY84); conditions: Compound concentration 1000.0 nM
[29] = target: Phosphatidylinositol 4,5-bisphosphate 3-kinase catalytic subunit alpha isoform (Homo sapiens) (UniProt P42336); conditions: Compound concentration 1000.0 nM
[30] = tested on: Epidermal growth factor receptor (Homo sapiens), P00533 [UNDEFINED MUTATION]; conditions: Compound concentration 1000.0 nM; remark: listed apart in the source
[31] = target: T2, Muscarinic acetylcholine receptor M5 (Homo sapiens) (UniProt P08912); conditions: Compound concentration 10.0 uM
T2 sequence (whole entry): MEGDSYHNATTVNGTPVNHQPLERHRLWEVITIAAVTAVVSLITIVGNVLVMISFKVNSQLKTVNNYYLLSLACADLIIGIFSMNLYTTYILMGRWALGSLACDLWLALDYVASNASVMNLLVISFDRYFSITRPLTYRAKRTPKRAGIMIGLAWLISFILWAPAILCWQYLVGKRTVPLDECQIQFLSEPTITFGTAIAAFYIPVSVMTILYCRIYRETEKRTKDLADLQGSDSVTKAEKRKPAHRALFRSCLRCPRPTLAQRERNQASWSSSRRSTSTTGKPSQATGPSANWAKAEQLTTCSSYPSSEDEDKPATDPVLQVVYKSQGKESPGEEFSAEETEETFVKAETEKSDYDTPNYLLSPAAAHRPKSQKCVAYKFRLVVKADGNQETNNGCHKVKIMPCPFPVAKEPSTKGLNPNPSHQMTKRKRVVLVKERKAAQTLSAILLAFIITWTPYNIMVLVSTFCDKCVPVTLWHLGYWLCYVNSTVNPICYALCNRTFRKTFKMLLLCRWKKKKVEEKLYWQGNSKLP

Casein kinase I isoform delta (Homo sapiens), sequence (P48730 whole entry, looked up, canonical isoform): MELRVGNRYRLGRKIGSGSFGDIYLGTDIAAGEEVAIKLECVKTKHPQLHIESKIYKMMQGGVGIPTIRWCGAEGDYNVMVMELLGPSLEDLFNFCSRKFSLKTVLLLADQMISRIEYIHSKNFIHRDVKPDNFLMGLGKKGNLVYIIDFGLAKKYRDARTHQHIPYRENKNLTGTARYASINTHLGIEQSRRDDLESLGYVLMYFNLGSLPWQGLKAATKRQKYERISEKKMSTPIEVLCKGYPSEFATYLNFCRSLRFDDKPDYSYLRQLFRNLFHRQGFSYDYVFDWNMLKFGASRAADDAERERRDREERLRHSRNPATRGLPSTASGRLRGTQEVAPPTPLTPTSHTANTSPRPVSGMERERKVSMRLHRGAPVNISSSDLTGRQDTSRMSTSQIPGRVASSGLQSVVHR

Row | Structure (SMILES) | residual activity [1] [%] | residual activity [2] [%] | residual activity [3] [%] | residual activity [4] [%] | residual activity [5] [%] | residual activity [6] [%] | residual activity [7] [%] | residual activity [8] [%] | residual activity [9] [%] | residual activity [10] [%] | residual activity [11] [%] | residual activity [12] [%] | residual activity [13] [%] | residual activity [14] [%] | inhibition [15] [%] | residual activity [16] [%] | residual activity [17] [%] | residual activity [18] [%] | residual activity [19] [%] | residual activity [20] [%] | further results
1 | O=C(NCc1ncc(C(F)(F)F)cc1Cl)c1ccc2c(c1)C1(CCS(=O)(=O)CC1)[C@H](C1CC1)N2S(=O)(=O)c1ccc(F)cc1 [BAY-784] | 85 | 92 | 90 | 100 | 100 | 100 | 90 | 80 | 95 | 100 | 100 | 64 | 91 | 77 | 12.8 | 100 | 100 | 70 | 100 | 100 | residual activity [21]: 88%; residual activity [22]: 100%; residual activity [23]: 100%; residual activity [24]: 86%; residual activity [25]: 92%; residual activity [26]: 100%; residual activity [27]: 100%; residual activity [28]: 83%; residual activity [29]: 100%; residual activity [30]: 100%; inhibition [31]: -6.43%
2 | O=C(NCc1ncc(C(F)(F)F)cc1Cl)c1ccc2c(c1)C1(CCS(=O)(=O)CC1)[C@@H](C1CC1)N2S(=O)(=O)c1ccc(F)cc1 [BAY-786] | 93 | 100 | 85 | 100 | 82 | 86 | 93 | 79 | 75 | 100 | 100 | 72 | 84 | 84 | 15.7 | 74 | 84 | 68 | 85 | 41 | residual activity [21]: 89%; residual activity [22]: 97%; residual activity [23]: 79%; residual activity [24]: 82%; residual activity [25]: 86%; residual activity [26]: 82%; residual activity [27]: 72%; residual activity [28]: 78%; residual activity [29]: 100%; residual activity [30]: 87%; inhibition [31]: -1.92%
